Experimental findings from patent US11028068B2, “Somatostatin modulators and uses thereof” (Crinetics Pharmaceuticals, Inc., priority 2017, dated 2021) are described below.

The term pEC50 denotes −log10 of the EC50, conventionally taken in molar units. Read a high pEC50 as a small EC50.

The assay deals with T1, human somatostatin receptor subtype 2 (Homo sapiens, UniProt P30874).
T1 construct: expressed in transfected cells; host or cells: CHO (Chinese hamster ovary) cells, cultured under G-418 selection
T1 sequence (P30874 whole entry): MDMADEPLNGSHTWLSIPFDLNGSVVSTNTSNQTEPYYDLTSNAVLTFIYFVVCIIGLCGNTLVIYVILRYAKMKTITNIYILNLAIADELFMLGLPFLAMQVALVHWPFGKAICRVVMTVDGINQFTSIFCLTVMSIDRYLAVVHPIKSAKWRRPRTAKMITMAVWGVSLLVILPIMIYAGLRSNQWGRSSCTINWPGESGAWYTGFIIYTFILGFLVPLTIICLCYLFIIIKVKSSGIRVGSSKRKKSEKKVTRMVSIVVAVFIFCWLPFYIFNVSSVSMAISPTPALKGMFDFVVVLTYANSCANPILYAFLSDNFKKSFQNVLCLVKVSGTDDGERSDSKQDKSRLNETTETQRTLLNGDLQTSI
Nature of the assay: cAMP assay (inhibition of cAMP activities via sst2 receptor). The class given is cell-based. Particulars: CHO cells expressing the human somatostatin receptor subtype 2, forskolin. The source says: General overview: All five SSTR subtypes are Gi coupled G-protein coupled receptors (GPCRs) that lead to decreases in intracellular cyclic AMP (cAMP) when activated by an agonist. Therefore, measurement of intracellular cAMP levels can be used to assess whether compounds of the invention are agonists of SSTR subtypes (John Kelly, Troy Stevens, W. Joseph Thompson, and Roland Seifert, Current Protocols in Pharmacology, 2005,2.2.1-2.2). One example of an intracellular cAMP assay is described below.
One day prior to the assay, 40,000 Chinese hamster ovary (CHO) cells expressing the human somatostatin receptor subtype 2 are plated in each well of a 96-well tissue culture plate in DM-MEM growth media (Gibco) with the following additives: 10% fetal bovine serum (Gibco), 100 U/mL penicillin (Gibco), 100 ug/mL streptomycin (Gibco), 10 mM HEPES (Gibco), 1.2 mM sodium hydroxide, 0.5 mg/mL G-418 (Gibco)). The cells are cultured overnight at 37° C., 5% CO2 and 95% humidity. On the day of the assay, the media is aspirated and the cells are washed with 1X Dulbecco's phosphate buffered saline (Gibco). Next, 5 μL of assay buffer (1× Earle's Balanced Salt Solution (Gibco), 5 mM MgCl2, 10 mM HEPES, 0.1% bovine serum albumin, 0.2 mM 3-Isobutyl-1-methylxanthine (IBMX, Biomol Research Labs)) and forskolin is added. Various dilutions of the compounds of the invention are prepared in assay buffer and 5 μL of the dilutions are added to the cultured cells and incubated for 15 minutes at 37° C. (the final concentration of the compounds of the invention are typically 0-10,000 nM). 10 μL of lysis buffer (HRTF cAMP kit, Cisbio) containing cAMP detection and visualization antibodies are added and the assay is allowed incubate for 1-24 hours at room temperature. The intracellular cAMP concentrations are then measured using a commercially available detection kit (for example, the cAMP HTRF kit, Cisbio). The measured intracellular cAMP concentrations are plotted vs. the concentration of the compounds of the invention and the EC50 of the compounds are calculated using standard methods.
In general terms: Cyclic AMP is a second messenger, typically raised through Gs and lowered through Gi signalling.

Each structure is given as a SMILES string. pEC50: −log10 of the molar value.

For `CC#Cc1cnc2ccc(-c3cccc(O)c3)nc2c1C(=O)N(C)C[C@@H]1CCCN1` [Compound 3-18, 6-(3-hydroxyphenyl)-N-methyl-3-(prop-1-yn-1-yl)-N-((2S) -pyrrolidin-2-ylmethyl)-1,5-naphthyridine-4-carboxamide], the pEC50 is 6.00 to 7.00. `Cc1cc(Cl)cc(-c2cnc3ccc(-c4cccc(O)c4)nc3c2C(=O)N(C)C[C@@H]2CCCN2)c1` [Compound 2-1, 3-(3-chloro-5-methylphenyl)-6-(3-hydroxyphenyl)-N-methyl-N-[(2S) -pyrrolidin-2-ylmethyl]-1,5-naphthyridine-4-carboxamide] showed a negative-log EC50 (pEC50) greater than 7.00. To `Cc1cccc(-c2cnc3ccc(-c4cccc(O)c4)nc3c2C(=O)N(C)C[C@@H]2CCCN2)n1` [Compound 3-5, 6-(3-hydroxyphenyl)-N-methyl-3-(6-methylpyridin-2-yl)-N-[(2S)-pyrrolidin-2-ylmethyl]-1,5-naphthyridine-4-carboxamide] belongs 6.00 to 7.00; to `CN(C[C@@H]1CCCN1)C(=O)c1c(N2CCc3cc(C(F)(F)F)ccc32)cnc2ccc(-c3cc(F)cc(C#N)c3)nc12` [Compound 3-54, 6-(3-cyano-5-fluorophenyl)-N-methyl-N-[(2S)-pyrrolidin-2-ylmethyl]-3-[5-(trifluoromethyl)-2,3-dihydro-1H-indol-1-yl]-1,5-naphthyridine-4-carboxamide], 6.00 to 7.00. Then `CN(C[C@@H]1CCCN1)C(=O)c1c(-c2cccc(O)c2)cnc2ccc(-c3cccc(O)c3)nc12` [Compound 2-2, 3,6-bis(3-hydroxyphenyl)-N-methyl-N-[(2S)-pyrrolidin-2-ylmethyl]-1,5-naphthyridine-4-carboxamide], with 6.00 to 7.00; and `CN(C[C@@H]1CCCN1)C(=O)c1c(N2CCOCC2)cnc2ccc(-c3cccc(O)c3)nc12` [Compound 3-12, 6-(3-hydroxyphenyl)-N-methyl-3-(morpholin-4-yl)-N-[(2S)-pyrrolidin-2-ylmethyl]-1,5-naphthyridine-4-carboxamide], with 6.00 to 7.00. To `CN(C)C(=O)c1cccc(-c2cnc3ccc(-c4cccc(O)c4)cc3c2C(=O)N(C)C[C@@H]2CCCN2)c1` [Compound 1-73, 3-[3-(dimethylcarbamoyl)phenyl]-6-(3-hydroxyphenyl)-N-methyl-N-[(2S)-pyrrolidin-2-ylmethyl]quinoline-4-carboxamide] belongs 6.00 to 7.00; to `CN(C[C@@H]1CCCN1)C(=O)c1c(N2CCC(CO)C2)cnc2ccc(-c3cccc(O)c3)nc12` (stereo partly drawn) [Compound 3-17, 3-[3-(hydroxymethyl)pyrrolidin-1-yl]-6-(3-hydroxyphenyl)-N-methyl-N-[(2S)-pyrrolidin-2-ylmethyl]-1,5-naphthyridine-4-carboxamide], 6.00 to 7.00; to `Cc1cc(F)cc(-c2cnc3ccc(-c4cnn(C)c4)cc3c2C(=O)N(C)C[C@@H]2CCCN2)c1` [Compound 3-10, 3-(3-fluoro-5-methylphenyl)-N-methyl-6-(1-methyl-1H-pyrazol-4-yl)-N-[(2S)-pyrrolidin-2-ylmethyl]quinoline-4-carboxamide], 6.00 to 7.00.

For `CN(C[C@@H]1CCCN1)C(=O)c1c(N2CCC(F)(F)C2)cnc2ccc(-c3cc(F)cc(C#N)c3)nc12` [Compound 3-76, 6-(3-cyano-5-fluorophenyl)-3-(3,3-difluoropyrrolidin-1-yl)-N-methyl-N-[(2S)-pyrrolidin-2-ylmethyl]-1,5-naphthyridine-4-carboxamide], the negative logarithm of the EC50 (pEC50) is 6.00 to 7.00. Then `Cc1cc(Cl)cc(-c2cnc3ccc(-c4cccc(O)c4)cc3c2C(=O)N(C)C[C@@H]2CCCN2)c1` [Compound 1-1, 3-(3-chloro-5-methylphenyl)-6-(3-hydroxyphenyl)-N-methyl-N-[(2S) -pyrrolidin-2-ylmethyl]quinoline-4-carboxamide], with 9.92. The molecule `CN(C[C@@H]1CCCN1)C(=O)c1c(N2CCO[C@@H](c3ccccc3)C2)cnc2ccc(-c3cc(F)cc(C#N)c3)nc12` [Compound 3-47, 6-(3-cyano-5-fluorophenyl)-N-methyl-3-[(2S)-2-phenylmorpholin-4-yl]-N-[(2S) -pyrrolidin-2-ylmethyl]-1,5-naphthyridine-4-carboxamide] had a negative-log EC50 (pEC50) of 6.00 to 7.00. In the case of `CN(C[C@@H]1CCCN1)C(=O)c1c(-c2cccc(C#N)c2)cnc2ccc(-c3cc(F)cc(C#N)c3)nc12` [Compound 2-15, 6-(3-cyano-5-fluorophenyl)-3-(3-cyanophenyl)-N-methyl-N-[(2S)-pyrrolidin-2-ylmethyl]-1,5-naphthyridine-4-carboxamide], the pEC50 is 6.00 to 7.00. To `CN(C[C@@H]1CCCN1)C(=O)c1c(N2CCO[C@H](c3ccccc3)C2)cnc2ccc(-c3cc(F)cc(C#N)c3)nc12` [Compound 3-42, 6-(3-cyano-5-fluorophenyl)-N-methyl-3-[(2R)-2-phenylmorpholin-4-yl]-N-[(2S) -pyrrolidin-2-ylmethyl]-1,5-naphthyridine-4-carboxamide] belongs 6.00 to 7.00; to `CC1CN(c2cnc3ccc(-c4cccc(O)c4)nc3c2C(=O)N(C)C[C@@H]2CCCN2)CC(C)O1` (stereo partly drawn) [Compound 3-6, 3-(2,6-dimethylmorpholin-4-yl)-6-(3-hydroxyphenyl)-N-methyl-N-[(2S)-pyrrolidin-2-ylmethyl]-1,5-naphthyridine-4-carboxamide], greater than 7.00.
